Test results: ChEMBL document CHEMBL1128102, “1,5-Benzodiazepines as CCK-B antagonists. Effect of halogen substitution at the benzo-fused ring on potency and selectivity” (Bioorg Med Chem Lett, 1995)

How the values were obtained:
[1] = target: Cholecystokinin receptor (Homo sapiens) (UniProt P32239+P32238); assay: Selectivity was determined as the ratio for binding affinities of CCK-A receptor to CCK-B receptor; format: protein assay
[2] = target: T1, Cholecystokinin receptor type A (Rattus norvegicus, UniProt P30551); assay: Binding affinity was measured by its ability to displace [3H]CCK-8S from CCK-A receptor in rat pancreas
T1 sequence (P30551 whole entry): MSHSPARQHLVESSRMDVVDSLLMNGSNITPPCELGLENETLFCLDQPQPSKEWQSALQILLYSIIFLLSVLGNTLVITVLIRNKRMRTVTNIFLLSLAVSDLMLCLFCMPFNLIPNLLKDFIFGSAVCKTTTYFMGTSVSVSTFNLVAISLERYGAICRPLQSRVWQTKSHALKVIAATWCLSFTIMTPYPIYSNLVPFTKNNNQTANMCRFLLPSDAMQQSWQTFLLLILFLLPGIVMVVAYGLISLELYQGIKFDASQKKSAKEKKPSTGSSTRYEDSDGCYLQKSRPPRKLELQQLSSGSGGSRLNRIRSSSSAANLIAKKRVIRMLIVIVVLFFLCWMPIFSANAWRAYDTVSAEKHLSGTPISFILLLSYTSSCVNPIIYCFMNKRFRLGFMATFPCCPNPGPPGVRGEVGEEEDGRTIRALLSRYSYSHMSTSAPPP

Cholecystokinin receptor (Homo sapiens), sequence (P32238 whole entry, looked up): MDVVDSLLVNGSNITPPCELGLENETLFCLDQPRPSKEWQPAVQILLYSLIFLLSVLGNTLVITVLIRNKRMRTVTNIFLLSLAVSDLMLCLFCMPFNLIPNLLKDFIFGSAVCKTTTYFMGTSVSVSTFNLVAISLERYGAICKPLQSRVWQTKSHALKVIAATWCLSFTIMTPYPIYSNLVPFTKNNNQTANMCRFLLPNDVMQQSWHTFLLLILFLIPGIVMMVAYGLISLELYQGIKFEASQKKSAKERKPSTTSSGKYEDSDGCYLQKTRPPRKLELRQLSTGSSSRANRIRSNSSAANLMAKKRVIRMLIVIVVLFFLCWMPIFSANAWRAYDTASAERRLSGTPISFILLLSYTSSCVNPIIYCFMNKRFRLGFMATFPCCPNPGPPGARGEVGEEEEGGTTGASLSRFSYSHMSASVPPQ
Cholecystokinin receptor (Homo sapiens), sequence (P32239 whole entry, looked up): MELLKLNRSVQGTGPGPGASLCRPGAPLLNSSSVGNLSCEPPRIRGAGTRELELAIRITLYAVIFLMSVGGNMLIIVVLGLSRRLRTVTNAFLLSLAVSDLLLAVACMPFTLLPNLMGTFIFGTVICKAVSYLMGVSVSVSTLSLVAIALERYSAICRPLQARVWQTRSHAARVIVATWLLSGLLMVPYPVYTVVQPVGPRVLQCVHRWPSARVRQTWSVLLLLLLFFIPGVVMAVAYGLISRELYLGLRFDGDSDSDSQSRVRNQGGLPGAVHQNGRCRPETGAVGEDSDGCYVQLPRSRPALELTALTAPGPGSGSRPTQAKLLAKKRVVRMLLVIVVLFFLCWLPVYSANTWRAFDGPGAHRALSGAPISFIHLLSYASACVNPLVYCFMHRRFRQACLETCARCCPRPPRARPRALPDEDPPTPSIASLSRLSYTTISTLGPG

Compound	Ratio [1]	Ki [2]
CC(C)CCN1C(=O)C(NC(=O)Nc2ccccc2)C(=O)N(c2ccccc2)c2ccc(Cl)cc21 (stereo not given)	23	41.7 nM
CC(C)CCN1C(=O)C(NC(=O)Nc2ccccc2)C(=O)N(c2ccccc2)c2cc(Cl)c(Cl)cc21 (stereo not given)	162	9.77 nM
CC(C)CCN1C(=O)C(NC(=O)Nc2ccccc2)C(=O)N(c2ccccc2)c2cc(F)ccc21 (stereo not given)	49	4.57 nM
CC(C)CCN1C(=O)C(NC(=O)Nc2ccccc2)C(=O)N(c2ccccc2)c2cc(Cl)ccc21 (stereo not given)	195	4.9 nM
CC(C)CCN1C(=O)C(NC(=O)Nc2ccccc2)C(=O)N(c2ccccc2)c2ccc(F)cc21 (stereo not given)	> 110	8.91 nM
